The values below come from patent US20240261333A1, “NOVEL TARGETS FOR ENHANCING ANTI-TUMOR IMMUNITY” (THE BROAD INSTITUTE, INC., priority 2021, published 2024).

One series deals with N-glycan synthesis. The conditions noted are these: cited from earlier work.
Series [1] deals with A375 cells overexpressing B3GNT2. The series can be described thus: Intra- and extra-cellular poly-LacNAc by tomato lectin staining, flow cytometry. In kind it is cell-based, human. The settings on record: A375 overexpressing B3GNT2, pretreated with different concentrations of inhibitor. As to the method:
(§1) For glycosylation inhibition, cells were treated with 20 μg/mL Kifunensine (Cayman Chemical 10009437) or 2 mM Benzyl 2-acetamido-2-deoxy-alpha-D-galactopyranoside (BAG; Millipore Sigma B4894-100MG) for 48 h to inhibit N- and O-glycosylation respectively unless otherwise indicated. For MCL1 inhibition, cells were treated with 1-10 μM of S63845 (Selleck Chemicals S8383) or AZD5991 (Selleck Chemicals S8643) for 4 h before incubation with T cells. Both glycosylation and MCL1 inhibitors were maintained at indicated concentrations during co-culture with T cells.
Per condition, 5×10^5 cells were pelleted at 200×g for 5 min and washed once with PBS. Cell were fixed in 4% Formaldehyde in PBS at 4° C. for 10 mins. […] For each sample, 10,000 cells were analyzed on a CytoFLEX Flow Cytometer (Beckman Coulter) and quantified with FlowJo (FlowJo). For each experiment, median fluorescence values for 3 biological replicates were compared to determine statistical significance.
For orientation: A flow cytometer gives signals particle by particle.

Series [2] concerns ESO T cells co-cultured with A375 cells. The series can be described thus: IFNγ ELISA in culture media of the T cell cytotoxicity assay. It is filed as cell-based, human. The settings on record: B3GNT2-overexpressing A375 pretreated with inhibitor, E:T ratio of 3; kifunensine having a stronger effect. As to the method: Expanded T cells were thawed and maintained in culture media for 8-10 h before incubation with cancer cells. Cancer cells were seeded in 96-well plates and allowed to attach for 3-4 h before T cells were added at the appropriate effector to target cell (E:T) ratio. Paired controls with no T cells added were included for each condition. After 18 h, cancer cells were washed twice with PBS to remove T cells, passaged, and cultured for 2 days. Primary patient-derived cell models were not passaged after T cell co-culture. Viability was measured using CellTiter-Glo (Promega G7571). For each E:T ratio, percent survival was calculated as viability of the cells incubated with T cells divided by viability of the paired control that was not incubated with T cells. […]
To challenge cells with cytokines, cells were incubated with Interferon-γ (IFNγ; Cell Signaling Technology 80385S), FasL (AdipoGen AG-40B-0130-3010), TRAIL (R&D Systems 375-TL-010), or TNF-α (AdipoGen AG-40B-0019-3010) for 24 h. […] Cell viability was measured using CellTiter-Glo (Promega G7571) and protein was harvested for Western blots. […] IFNγ in the cell culture media of the T cell cytotoxic assay was quantified using an ELISA kit (Thermo Fisher Scientific KHC4021). […]
A general note: ELISA stands for enzyme-linked immunosorbent assay.

Series [3] relates to A375 (NY-ESO-1+, HLA-A2+) melanoma cells. Nature of the series: T cell cytotoxicity assay (CellTiter-Glo), A375 against ESO T cells. In kind it is cell-based, human. The settings on record: B3GNT2-overexpressing A375 pretreated with inhibitor, E:T ratio of 3, kifunensine having a stronger effect. The protocol:
Expanded T cells were thawed and maintained in culture media for 8-10 h before incubation with cancer cells. Cancer cells were seeded in 96-well plates and allowed to attach for 3-4 h before T cells were added at the appropriate effector to target cell (E:T) ratio. Paired controls with no T cells added were included for each condition. After 18 h, cancer cells were washed twice with PBS to remove T cells, passaged, and cultured for 2 days. Primary patient-derived cell models were not passaged after T cell co-culture. Viability was measured using CellTiter-Glo (Promega G7571). For each E:T ratio, percent survival was calculated as viability of the cells incubated with T cells divided by viability of the paired control that was not incubated with T cells. For example, CD274-overexpressing melanoma cells that were co-cultured with ESO T cells were compared to CD274-overexpressing melanoma cells that were cultured without T cells in parallel. As an alternative cytotoxicity assay, A375 cells stably expressing Gaussia luciferase were co-cultured with ESO T cells. At each time point, 10% of cell culture media was used for the Gaussia luciferase assay (Targeting Systems GAR-2B) to directly measure cytotoxicity.
as §1
(ATP-based viability assays read luminescence as a measure of living cells.)

Series [4] has as its system A375 cells overexpressing B3GNT2. The series can be described thus: Binding of recombinant T cell proteins to A375 cells, flow cytometry. In kind it is cell-based, human. The conditions noted are these: B3GNT2-overexpressing A375 treated with inhibitor; CD2, 4-1BB, TREML2, NKG2D. The protocol:
as §1
Per condition, 5×10^5 cells were pelleted at 200×g for 5 min and washed once with PBS. Cell were fixed in 4% Formaldehyde in PBS at 4° C. for 10 mins. Cells were washed twice with PBS and resuspended in PBS with 25 μg/mL recombinant Fc chimera proteins [PVRIG (R&D Systems 9365-PV-050), CD226 (R&D Systems 666-DN-050), NKG2D (R&D 1299-NK-050), TREML2 (R&D Systems 3259-TL-050), CD2 (R&D Systems 1856-CD-050), CD96 (R&D Systems 9360-CD-050), TIGIT (BPS Bioscience 71186), CD27 (BPS Bioscience 71176), or 4-1BB (TNFRSF9; Sino Bio 10041-H03H)], 0.1 μg/mL HLA-A2:NY-ESO-1 Fab (Stewart-Jones et al., 2009), 5 μg/mL Fas antibody (Millipore Sigma 05-201), 25 μg/mL TNFRSF10B antibody (Novus Biologicals NB100-56618, 1:200), or Dylight 649 labeled Tomato Lectin (Vector Laboratories DL-1178, 1:100). Cells were incubated at 4° C. for 1 h. Cells were washed twice with PBS and resuspended in PBS with the appropriate secondary antibody [IgG Fc PE (Thermo Fisher Scientific 12-4998-82, 1:50), His Tag Alexa Fluor 647 (Thermo Fisher Scientific MA121315A647), mouse Alexa Fluor 568 (Thermo Fisher Scientific A-11031), or rabbit Alexa Fluor 647 (Thermo Fisher Scientific A-21244)]. Cells stained with Tomato Lectin were not incubated with additional secondary antibodies. […] For each sample, 10,000 cells were analyzed on a CytoFLEX Flow Cytometer (Beckman Coulter) and quantified with FlowJo (FlowJo). For each experiment, median fluorescence values for 3 biological replicates were compared to determine statistical significance.

For tunicamycin, the “Inhibition of N-glycan synthesis” value in the series with N-glycan synthesis is recorded as “potent inhibitor of N-glycan synthesis”.

For the compound `CC(=O)N[C@H]1[C@@H](OCc2ccccc2)O[C@H](CO)[C@H](O)[C@@H]1O` [BAG, benzyl-2-acetamido-2-deoxy-α-D-galactopyranoside], the “poly-LacNAc measured by tomato lectin staining” value in series [1] is “reduced poly-LacNAc added by B3GNT2 in a dosage-dependent manner”. In series [2], the “T cell IFNγ secretion” value was “increased T cell IFNγ secretion”. Moreover, the “Cell survival against T cell cytotoxicity” value in series [3] was “reduced A375 survival”. The “Binding of recombinant T cell proteins to A375 cells” value in series [4] was “rescued the reduction in T cell protein binding”.
